The assay deals with T1, human recombinant HDAC6 (Homo sapiens, UniProt Q9UBN7).
T1 construct: purchased Calbiochem 382180
T1 sequence (Q9UBN7 1-1215): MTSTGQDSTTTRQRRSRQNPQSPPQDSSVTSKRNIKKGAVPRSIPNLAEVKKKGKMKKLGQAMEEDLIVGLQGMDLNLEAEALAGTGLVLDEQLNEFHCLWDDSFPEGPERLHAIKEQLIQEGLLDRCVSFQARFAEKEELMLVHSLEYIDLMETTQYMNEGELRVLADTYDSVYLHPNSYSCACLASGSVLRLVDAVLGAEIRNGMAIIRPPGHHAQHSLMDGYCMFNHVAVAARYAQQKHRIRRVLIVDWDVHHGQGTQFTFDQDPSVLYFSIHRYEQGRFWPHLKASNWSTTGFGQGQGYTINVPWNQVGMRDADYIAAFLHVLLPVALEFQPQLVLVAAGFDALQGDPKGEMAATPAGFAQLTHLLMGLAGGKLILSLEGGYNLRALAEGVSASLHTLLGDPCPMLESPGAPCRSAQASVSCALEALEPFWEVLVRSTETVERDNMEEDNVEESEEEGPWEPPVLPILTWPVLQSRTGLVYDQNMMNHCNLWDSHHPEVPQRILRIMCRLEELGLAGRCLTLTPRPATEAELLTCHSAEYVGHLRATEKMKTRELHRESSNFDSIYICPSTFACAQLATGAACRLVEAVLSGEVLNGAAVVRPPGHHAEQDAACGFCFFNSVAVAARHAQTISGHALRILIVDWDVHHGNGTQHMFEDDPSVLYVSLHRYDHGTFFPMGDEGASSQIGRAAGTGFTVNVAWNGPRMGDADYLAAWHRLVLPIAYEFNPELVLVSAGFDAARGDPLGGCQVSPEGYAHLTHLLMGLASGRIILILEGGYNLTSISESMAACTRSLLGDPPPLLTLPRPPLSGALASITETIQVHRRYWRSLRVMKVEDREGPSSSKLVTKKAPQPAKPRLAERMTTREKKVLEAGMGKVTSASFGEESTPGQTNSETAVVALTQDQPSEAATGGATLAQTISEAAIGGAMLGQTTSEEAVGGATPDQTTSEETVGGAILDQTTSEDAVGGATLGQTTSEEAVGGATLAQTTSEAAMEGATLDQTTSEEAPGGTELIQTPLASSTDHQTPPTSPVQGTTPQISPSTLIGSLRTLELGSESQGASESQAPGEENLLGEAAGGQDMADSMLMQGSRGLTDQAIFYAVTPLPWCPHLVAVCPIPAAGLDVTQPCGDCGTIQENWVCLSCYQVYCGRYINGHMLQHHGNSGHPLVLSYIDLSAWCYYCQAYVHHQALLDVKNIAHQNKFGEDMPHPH
Put plainly: HDAC6 enzyme activity inhibition assay (HDAC Fluorimetric Drug Discovery Kit). The format is biochemical. The settings on record: for HDAC6 selectivity (fold): HDAC1 vs HDAC6; for pIC50: same protocol as the HDAC1 enzyme activity test. An outline of the steps: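 First, compound in 5-fold dilution steps is combined with 0.3 μg enzyme and 10 μM Fluor de Lys-SIRT1 substrate. After 60 min at 30° C, developer is added for 30 min. Fluorescence at Ex 360/Em 460 then gives IC50 values.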

The text below walks through data of patent publication US10538498B2, “1,3,4-oxadiazole sulfonamide derivative compounds as histone deacetylase 6 inhibitor, and the pharmaceutical composition comprising the same” (Chong Kun Dang Pharmaceutical Corp., priority 2015, dated 2020).

pIC50: −log10 of the molar value.

By pIC50 is commonly meant the IC50 on a negative log10 scale, so that one unit is a factor of ten. In the case of `C[C@@H]1CN(CCCS(=O)(=O)N(Cc2ccc(-c3nnc(C(F)F)o3)cc2)c2ccccc2)C[C@H](C)N1C` [Compound 11665, N-(4-(5-(difluoromethyl)-1,3,4-oxadiazol-2-yl)benzyl)-N-phenyl-3-((3R,5S)-3,4,5-trimethylpiperazin-1-yl)propane-1-sulfonamide], the “HDAC6 selectivity (fold)” value is on record as 5263 fold and the pIC50 is 7.72.
In the same order, the values of `CS(=O)(=O)N(Cc1ccc(-c2nnc(C(F)F)o2)cc1)CC12CC3CC(CC(C3)C1)C2` [Compound 11668, N-((adamantan-1-yl)methyl)-N-(4-(5-(difluoromethyl)-1,3,4-oxadiazol-2-yl)benzyl)methanesulfonamide] are 724 fold and 6.86.
The matching figures for `CS(=O)(=O)N(Cc1ccc(-c2nnc(C(F)F)o2)cn1)CC12CC3CC(CC(C3)C1)C2` [Compound 11669, N-((adamantan-1-yl)methyl)-N-((5-(5-(difluoromethyl)-1,3,4-oxadiazol-2-yl)pyridin-2-yl)methyl)methanesulfonamide]: 900 fold and 6.95.
As to `CC1CCN(CCS(=O)(=O)N(Cc2ccc(-c3nnc(C(F)F)o3)cc2)c2ccccc2)CC1` [Compound 11675, N-(4-(5-(difluoromethyl)-1,3,4-oxadiazol-2-yl)benzyl)-2-(4-methylpiperidin-1-yl)-N-phenylethanesulfonamide], the “HDAC6 selectivity (fold)” value is 549 fold and the pIC50 is 6.74.
In the same order, the values of `O=C(OCC1CCN(CCS(=O)(=O)N(Cc2ccc(-c3nnc(C(F)F)o3)cc2)c2ccccc2)CC1)C(F)F` [Compound 11676, (1-(2-(N-(4-(5-(difluoromethyl)-1,3,4-oxadiazol-2-yl)benzyl)-N-Phenylsulfamoyl)ethyl)piperidin-4-yl)methyl 2,2-difluoroacetate] are 1408 fold and 7.15.
The matching figures for `CC(C)(C)OC(=O)N(C(=O)C(F)F)C1CCN(CCS(=O)(=O)N(Cc2ccc(-c3nnc(C(F)F)o3)cc2)c2ccccc2)CC1` [Compound 11677, tert-butyl 2,2-difluoroacetyl(1-(2-(N-(4-(5-(difluoromethyl)-1,3,4-oxadiazol-2-yl)benzyl)-N-phenylsulfamoyl)ethyl)piperidin-4-yl)carbamate]: 1754 fold and 7.24.
In the same order, the values of `O=S(=O)(C1CCN(C2COC2)CC1)N(Cc1ccc(-c2nnc(C(F)F)o2)cc1)c1cccc(Cl)c1` [Compound 11681, N-(3-chlorophenyl)-N-(4-(5-(difluoromethyl)-1,3,4-oxadiazol-2-yl)benzyl)-1-(oxetan-3-yl)piperidine-4-sulfonamide] are 6667 fold and 7.82.
On to `Cc1cccc(N(Cc2ccc(-c3nnc(C(F)F)o3)cc2)S(=O)(=O)C2CCN(C3COC3)CC2)c1` [Compound 11682, N-(4-(5-(difluoromethyl)-1,3,4-oxadiazol-2-yl)benzyl)-1-(oxetan-3-yl)-N-(m-tolyl)piperidine-4-sulfonamide], for which the “HDAC6 selectivity (fold)” value is 4545 fold and the pIC50 is 7.66.
In the same order, the values of `O=S(=O)(C1CCN(C2COC2)CC1)N(Cc1ccc(-c2nnc(C(F)F)o2)cn1)c1cccc(Cl)c1` [Compound 11683, N-(3-chlorophenyl)-N-((5-(5-(difluoromethyl)-1,3,4-oxadiazol-2-yl)pyridin-2-yl)methyl)-1-(oxetan-3-yl)piperidine-4-sulfonamide] are 14285 fold and 8.15.
The matching figures for `Cc1cccc(N(Cc2ccc(-c3nnc(C(F)F)o3)cn2)S(=O)(=O)C2CCN(C3COC3)CC2)c1` [Compound 11684, N-((5-(5-(difluoromethyl)-1,3,4-oxadiazol-2-yl)pyridin-2-yl)methyl)-1-(oxetan-3-yl)-N-(m-tolyl)piperidine-4-sulfonamide]: 6250 fold and 7.80.
In the same order, the values of `CN(C)CCCS(=O)(=O)N(Cc1ccc(-c2nnc(C(F)F)o2)cc1)c1ccccc1` [Compound 11685, N-(4-(5-(difluoromethyl)-1,3,4-oxadiazol-2-yl)benzyl)-3-(dimethylamino)-N-phenylpropane-1-sulfonamide] are 5882 fold and 7.77.
For `Cc1cccc(N(Cc2ccc(-c3nnc(C(F)F)o3)cc2)S(=O)(=O)C2CCN(C3CC4CCC3C4)CC2)c1` (stereo not shown) [Compound 11693, 1-(bicyclo[2.2.1]heptan-2-yl)-N-(4-(5-(difluoromethyl)-1,3,4-oxadiazol-2-yl)benzyl)-N-(m-tolyl)piperidine-4-sulfonamide], the “HDAC6 selectivity (fold)” value was 198 fold and the pIC50 was 6.30.
On to `Cc1cccc(N(Cc2ccc(-c3nnc(C(F)F)o3)cc2)S(=O)(=O)C2CCN(C3CCC(F)(F)CC3)CC2)c1` [Compound 11694, 1-(4,4-difluorocyclohexyl)-N-(4-(5-(difluoromethyl)-1,3,4-oxadiazol-2-yl)benzyl)-N-(m-tolyl)piperidine-4-sulfonamide], for which the “HDAC6 selectivity (fold)” value turned out to be 215 fold and the pIC50 was 6.33.
For the compound `Cc1cccc(N(Cc2ccc(-c3nnc(C(F)F)o3)cc2)S(=O)(=O)C2CCN([C@H]3CC[C@H](C(F)(F)F)CC3)CC2)c1` [Compound 11697, N-(4-(5-(difluoromethyl)-1,3,4-oxadiazol-2-yl)benzyl)-N-(m-tolyl)-1-((1r,4r)-4-(trifluoromethyl)cyclohexyl)piperidine-4-sulfonamide], the “HDAC6 selectivity (fold)” value stood at 101 fold and the pIC50 was 6.01.
In the same order, the values of `Cc1cccc(N(Cc2ccc(-c3nnc(C(F)F)o3)cc2)S(=O)(=O)C2CCN([C@H]3CC[C@@H](C(F)(F)F)CC3)CC2)c1` [Compound 11698, N-(4-(5-(difluoromethyl)-1,3,4-oxadiazol-2-yl)benzyl)-N-(m-tolyl)-1-((1s,4s)-4-(trifluoromethyl)cyclohexyl)piperidine-4-sulfonamide] are 151 fold and 6.18.
The matching figures for `Cc1cccc(N(Cc2ccc(-c3nnc(C(F)F)o3)cc2)S(=O)(=O)C2CCN(C3CCOCC3)CC2)c1` [Compound 11699, N-(4-(5-(difluoromethyl)-1,3,4-oxadiazol-2-yl)benzyl)-1-(tetrahydro-2H-pyran-4-yl)-N-(m-tolyl)piperidine-4-sulfonamide]: 776 fold and 6.89.
The matching figures for `O=S(=O)(CCN1CCCC(O)C1)N(Cc1ccc(-c2nnc(C(F)F)o2)cc1)c1ccccc1` (stereo not shown) [Compound 11700, N-(4-(5-(difluoromethyl)-1,3,4-oxadiazol-2-yl)benzyl)-2-(3-hydroxypiperidin-1-yl)-N-phenylethanesulfonamide]: 782 fold and 6.89.
As to `O=S(=O)(CCCN1CC[C@H](F)C1)N(Cc1ccc(-c2nnc(C(F)F)o2)cc1)c1ccccc1` [Compound 11705, (S)—N-(4-(5-(difluoromethyl)-1,3,4-oxadiazol-2-yl)benzyl)-3-(3-fluoropyrrolidin-1-yl)-N-phenylpropane-1-sulfonamide], the “HDAC6 selectivity (fold)” value came to 637 fold and the pIC50 is 6.80.
`O=S(=O)(CCCN1CCC(F)(F)C1)N(Cc1ccc(-c2nnc(C(F)F)o2)cc1)c1ccccc1` [Compound 11706, N-(4-(5-(difluoromethyl)-1,3,4-oxadiazol-2-yl)benzyl)-3-(3,3-difluoropyrrolidin-1-yl)-N-phenylpropane-1-sulfonamide]: the “HDAC6 selectivity (fold)” value is recorded as 150 fold and the pIC50 is 6.18.
With `CCS(=O)(=O)N(Cc1ccc(-c2nnc(C(F)F)o2)cn1)c1cccc2c1CN(C)C2` [Compound 11712, N-((5-(5-(difluoromethyl)-1,3,4-oxadiazol-2-yl)pyridin-2-yl)methyl)-N-(2-methylisoindolin-4-yl)ethanesulfonamide], the “HDAC6 selectivity (fold)” value amounted to 264 fold and the pIC50 was 6.42.
